According to US20230413819A1, “METHODS FOR CONTROLLING FLEA AND TICK INFESTATIONS IN A MAMMAL” (In the Bowl Animal Health, Inc., priority 2021, published 2023):
Where “and” joins values, the source holds several entries; their conditions need not be identical. Identical values can stand only once.

Assays:
[1] = Average plasma concentration of mivorilaner, various daily oral doses (Examples 5 and 11); type: in vivo, dogs; conditions: dog, Group 5, 1.0 mg/kg/day oral, fed
[2] = Plasma concentration of mivorilaner, 0.75 mg/kg daily oral (Examples 4 and 10); type: in vivo, dogs
Method: (§1) Each dog in the treatment group is to receive by mouth a liquid formulation of isoxazoline. The dosage of 0.75 mg/kg is to be administered to the dogs on each of days 0-29.
Dogs in the control group are not to receive isoxazoline or any other tick control treatment. Each dog in the treatment group is to be offered its daily ration (dry food) and the individual doses of liquid formulation are to be administered after the individual dog has eaten at least 25% of its total daily ration. After receiving the dose of isoxazoline, the dogs are to be allowed to continue eating. This mimics incorporating the isoxazoline in feed. Each dog in the treatment group and the control group is to be experimentally infested with 50 adult ticks on test days 5, 12, 19, 28 and 35. Comb counts for live and moribund attached ticks are to be conducted on days 7, 14, 21, 30 and 37.
Dogs in the control group are not to receive isoxazoline or any other flea control treatment. Each dog in the treatment group is to be offered its daily ration (dry food) and the individual doses of liquid formulation are to be administered after the individual dog has eaten at least 25% of its total daily ration. After receiving the dose of isoxazoline, the dogs are to be allowed to continue eating. This mimics incorporating the isoxazoline in feed. Each dog in the treatment group and the control group is to be experimentally infested with 100 unfed adult fleas on test days 2, 5, 12, 20 and 35. Comb counts for live adult fleas are to be conducted on days 4, 7, 14, 21 and 37.

[3] = test system: Ctenocephalides felis; assay: Efficacy of isoxazoline (mivorilaner) per os to dogs against Ctenocephalides felis (Example 10); type: in vivo; conditions: 0.75 mg/kg/day oral
Text: Methods: A pool of 14 dogs are to be preliminarily infested with ˜100 unfed adult C. felis in order to identify dogs that can suitably sustain a reliable infestation rate, defined as approximately 50% fleas being live at the end of a 48-hour period. The 12 dogs with the highest live flea counts are to be selected for inclusion in the study. The dogs are to be divided into a control group and a treatment group.
The dogs are to be housed individually during the study period and are to be fed a commercial dry dog food ration with ad libitum access to water.
as §1
Dogs in the control group are not to receive isoxazoline or any other flea control treatment. Each dog in the treatment group is to be offered its daily ration (dry food) and the individual doses of liquid formulation are to be administered after the individual dog has eaten at least 25% of its total daily ration. After receiving the dose of isoxazoline, the dogs are to be allowed to continue eating. This mimics incorporating the isoxazoline in feed. […]
Results: referring now to FIG. 16, the arithmetic mean efficacy in reduction of live adult flea counts is shown. The Percent Efficacy is calculated according to the formula: […]

[4] = Average plasma concentration of mivorilaner, medicated daily feed (Example 9); type: in vivo, dogs
Method: Each dog in a treatment group (test groups 2-4) is to receive a medicated daily feed from study days 0-49. The medicated daily feed is to be offered to the dogs for 1 hour on each of days 0-49 according to test groups listed in TABLE 11.

O=C(CNC(=O)c1sc(C2=NO[C@@](c3cc(Cl)c(F)c(Cl)c3)(C(F)(F)F)C2)c2c1CCC2)NCC(F)F [mivorilaner, 3-[(5S)-5-(3,5-dichloro-4-fluorophenyl)-5-(trifluoromethyl)-4,5-dihydroisoxazol-3-yl]-N-[2-[(2,2-difluoroethyl)amino]-2-oxoethyl]-5,6-dihydro-4H-cyclopenta[c]thiophene-1-carboxamide]
concentration at 168 h ([1]; 168 h after initial dose): 1790 ng/mL | concentration at 336 h ([1]; 336 h after initial dose): 2690 ng/mL | concentration at 504 h ([1]; 504 h after initial dose): 3020 ng/mL | concentration at 720 h ([1]; 720 h after initial dose): 3760 ng/mL | concentration at 888 h ([1]; 888 h after initial dose): 3860 ng/mL | concentration at 1056 h ([1]; 1056 h after initial dose): 4260 ng/mL | concentration at 1224 h ([1]; 1224 h after initial dose): 4840 ng/mL | concentration at 1440 h ([1]; 1440 h after initial dose): 4140 ng/mL | Mivorilaner Concentration, individual canines ([2]; 0.75 mg/kg/day oral days 0-29, Day 3, 0.75 mg/kg/day): 579 ng/mL and 660 ng/mL and 800 ng/mL and 798 ng/mL and 556 ng/mL and 648 ng/mL | Mivorilaner Concentration, individual canines ([2]; 0.75 mg/kg/day oral days 0-29, Day 7, 0.75 mg/kg/day): 994 ng/mL and 1470 ng/mL and 1620 ng/mL and 1660 ng/mL and 1330 ng/mL | Mivorilaner Concentration, individual canines ([2]; 0.75 mg/kg/day oral days 0-29, Day 14, 0.75 mg/kg/day): 1560 ng/mL and 2120 ng/mL and 2370 ng/mL and 2060 ng/mL and 1990 ng/mL and 2530 ng/mL | Mivorilaner Concentration, individual canines ([2]; 0.75 mg/kg/day oral days 0-29, Day 21, 0.75 mg/kg/day): 2450 ng/mL and 2720 ng/mL and 2950 ng/mL and 2660 ng/mL and 2750 ng/mL and 2820 ng/mL | Mivorilaner Concentration, individual canines ([2]; 0.75 mg/kg/day oral days 0-29, Day 30, 0.75 mg/kg/day): 2320 ng/mL and 2600 ng/mL and 2790 ng/mL and 2570 ng/mL and 2890 ng/mL | Mivorilaner Concentration, individual canines ([2]; 0.75 mg/kg/day oral days 0-29, Day 37, 0.75 mg/kg/day): 1880 ng/mL and 2010 ng/mL and 1980 ng/mL and 1750 ng/mL and 2070 ng/mL and 2410 ng/mL | Mivorilaner Concentration, individual canines ([2]; 0.75 mg/kg/day oral days 0-29, Day −1 (before first dose)): BLQ | concentration at 30 day ([2]; dog, po, 0.75 mg/kg/day, 0.75 mg/kg/day oral days 0-29, Day 30, read-out: Mivorilaner Concentration, individual canines): 2890 ng/mL | day after initial administration by which the treatment is effective (reduction of live adult flea counts) [3]: ≤ 4 days | average plasma concentration of isoxazoline (mivorilaner) ([4]; Group 2, 106 mg/kg feed (anticipated 1 mg/kg daily), 1 hr): 49.98 | average plasma concentration of isoxazoline (mivorilaner) ([4]; Group 2, 106 mg/kg feed (anticipated 1 mg/kg daily), 3 hr): 292.00 | average plasma concentration of isoxazoline (mivorilaner) ([4]; Group 2, 106 mg/kg feed (anticipated 1 mg/kg daily), 6 hr): 539.00 | average plasma concentration of isoxazoline (mivorilaner) ([4]; Group 2, 106 mg/kg feed (anticipated 1 mg/kg daily), 10 hr): 505.40 | average plasma concentration of isoxazoline (mivorilaner) ([4]; Group 2, 106 mg/kg feed (anticipated 1 mg/kg daily), 24 hr): 458.60 | average plasma concentration of isoxazoline (mivorilaner) ([4]; Group 2, 106 mg/kg feed (anticipated 1 mg/kg daily), 48 hr): 771.83 | average plasma concentration of isoxazoline (mivorilaner) ([4]; Group 2, 106 mg/kg feed (anticipated 1 mg/kg daily), 96 hr): 1570.50 | average plasma concentration of isoxazoline (mivorilaner) ([4]; Group 2, 106 mg/kg feed (anticipated 1 mg/kg daily), 168 hr): 2156.67 | average plasma concentration of isoxazoline (mivorilaner) ([4]; Group 2, 106 mg/kg feed (anticipated 1 mg/kg daily), 240 hr): 3003.33 | average plasma concentration of isoxazoline (mivorilaner) ([4]; Group 2, 106 mg/kg feed (anticipated 1 mg/kg daily), 336 hr): 3290.00 | average plasma concentration of isoxazoline (mivorilaner) ([4]; Group 3, 106 mg/kg feed (anticipated 1 mg/kg daily), 1 hr): 40.41 | average plasma concentration of isoxazoline (mivorilaner) ([4]; Group 3, 106 mg/kg feed (anticipated 1 mg/kg daily), 3 hr): 264.83 | average plasma concentration of isoxazoline (mivorilaner) ([4]; Group 3, 106 mg/kg feed (anticipated 1 mg/kg daily), 6 hr): 467.50 | average plasma concentration of isoxazoline (mivorilaner) ([4]; Group 3, 106 mg/kg feed (anticipated 1 mg/kg daily), 10 hr): 419.17 | average plasma concentration of isoxazoline (mivorilaner) ([4]; Group 3, 106 mg/kg feed (anticipated 1 mg/kg daily), 24 hr): 435.17 | average plasma concentration of isoxazoline (mivorilaner) ([4]; Group 3, 106 mg/kg feed (anticipated 1 mg/kg daily), 48 hr): 781.83 | average plasma concentration of isoxazoline (mivorilaner) ([4]; Group 3, 106 mg/kg feed (anticipated 1 mg/kg daily), 96 hr): 1596.67 | average plasma concentration of isoxazoline (mivorilaner) ([4]; Group 3, 106 mg/kg feed (anticipated 1 mg/kg daily), 168 hr): 2406.67 | average plasma concentration of isoxazoline (mivorilaner) ([4]; Group 3, 106 mg/kg feed (anticipated 1 mg/kg daily), 240 hr): 3026.67 | average plasma concentration of isoxazoline (mivorilaner) ([4]; Group 3, 106 mg/kg feed (anticipated 1 mg/kg daily), 336 hr): 3516.67 | average plasma concentration of isoxazoline (mivorilaner) ([4]; Group 4, 318 mg/kg feed (anticipated 3 mg/kg daily), 1 hr): 143.75 | average plasma concentration of isoxazoline (mivorilaner) ([4]; Group 4, 318 mg/kg feed (anticipated 3 mg/kg daily), 3 hr): 846.50 | average plasma concentration of isoxazoline (mivorilaner) ([4]; Group 4, 318 mg/kg feed (anticipated 3 mg/kg daily), 6 hr): 1265.67 | average plasma concentration of isoxazoline (mivorilaner) ([4]; Group 4, 318 mg/kg feed (anticipated 3 mg/kg daily), 10 hr): 1198.17 | average plasma concentration of isoxazoline (mivorilaner) ([4]; Group 4, 318 mg/kg feed (anticipated 3 mg/kg daily), 24 hr): 1021.17 | average plasma concentration of isoxazoline (mivorilaner) ([4]; Group 4, 318 mg/kg feed (anticipated 3 mg/kg daily), 48 hr): 2011.67 | average plasma concentration of isoxazoline (mivorilaner) ([4]; Group 4, 318 mg/kg feed (anticipated 3 mg/kg daily), 96 hr): 3928.33 | average plasma concentration of isoxazoline (mivorilaner) ([4]; Group 4, 318 mg/kg feed (anticipated 3 mg/kg daily), 168 hr): 6461.67 | average plasma concentration of isoxazoline (mivorilaner) ([4]; Group 4, 318 mg/kg feed (anticipated 3 mg/kg daily), 240 hr): 8696.67 | average plasma concentration of isoxazoline (mivorilaner) ([4]; Group 4, 318 mg/kg feed (anticipated 3 mg/kg daily), 336 hr): 11600.00
